# According to US20170071852A1, “THERAPEUTIC OR PREVENTIVE AGENT FOR MEIBOMIAN GLAND DYSFUNCTION OR MEIBOMIAN GLAND BLOCKAGE” (Santen Pharmaceutical Co., Ltd., priority 2012, published 2017):
# “Also recorded” adds a separate entry of the source.
# What was measured:
# female Lewis rats = test: Test for meibomian gland peripheral telangiectasia by administration of complete Freund's adjuvant using rats; format: in vivo, rat; settings: for Telangiectasia score (mean): six eyes
# Method: 1. Test for Meibomian Gland Peripheral Telangiectasia by Administration of Full Friend's Adjuvant Using Rats Clarithromycin (LKT Laboratories, Inc.), concentrated glycerin, dibasic sodium phosphate hydrate and polyoxyl 40 stearate were added to purified water and dissolved to prepare a test sample comprising clarithromycin at a final concentration of 1% (w/v), at pH 7. Twenty five μl of complete Freund's adjuvant was administered to one site of the right upper eyelid of female Lewis rats at five weeks age. On the seventh day from the initiation, the periphery of the meibomian gland orifices on the right upper eyelid was observed using a slit-lamp and a telangiectasia score was determined. The eyelid margin of the upper eyelid was divided into three segments: ear, middle and nasal sites, and based on criteria described in Table 1, scores of telangiectasia peripheral to the meibomian gland orifices in each segment were determined and the sum of the scores in three segments were calculated as the telangiectasia score of one eye. The presence or absence of dilation of the capillaries was determined based on whether a capillary that is usually not visible could be ascertained as a result of enlargement of the capillary diameter. [table] After dividing into a saline-administered group and a 1% (w/v) clarithromycin aqueous solution-administered groups, the test was carried out with six eyes in each group so as to minimize variations in mean scores, and from the 8th day after initiation, saline (5 μl/eye, six times per day) or 1% (w/v) clarithromycin aqueous solution (5 μl/eye, three or six times per day) were instilled into the right eyes for 21 days. At 28 days after initiation, the peripheries of the meibomian gland orifices on the right upper eyelids were observed using a slit-lamp and the telangiectasia score was determined.
# [1] = test system: Male Hos:HR-1 hairless mice; test: Test for obstruction of meibomian gland orifices by feeding HR-AD diet using hairless mice; format: in vivo, mouse; settings: for Number of obstructed meibomian gland orifices (mean, out of eight): six eyes
# Method: 2. Test for Obstruction of Meibomian Gland Orifices by Feeding HR-AD Diet Using Hairless Mice A 1% (w/v) clarithromycin test solution was prepared by the same operation as described in Pharmacological Test 1. Male Hos:HR-1 hairless mice at five weeks of age were divided into a group of 6 fed a regular diet (CRF-1 diet, manufactured by Oriental Yeast Co., Ltd.); and a group of 12 fed an HR-AD diet (manufactured by Nosan Corporation), and the mice in each respective group were freely allowed to feed the regular diet or HR-AD diet. On the 28th day after the start of the diets, meibomian gland orifices were observed using a slit-lamp and the number of obstructed orifices out of eight meibomian gland orifices of the center of the right upper eyelid were counted. The presence or absence of an obstruction of the meibomian gland orifice was determined based on whether the meibomian gland orifice was in a cloudy and swollen state. The 12 mice in the HR-AD diet group were further divided into a saline-administered group; and a 1% (w/v) clarithromycin aqueous solution-administered group, and testing was carried out with six eyes in each group so as to minimize variations in the mean scores of the number of obstructed meibomian gland orifices in each group; from the 29th day after starting the diets, saline (2 μl/eye, three times per day) or 1% (w/v) clarithromycin aqueous solution (2 μl/eye, three times per day) were instilled for 14 days. At 42 days after starting the diet, meibomian gland orifices were observed using a slit-lamp and the number of obstructed orifices out of eight meibomian gland orifices of the center of the right upper eyelid were counted.
# [2] = 42 days after starting HR-AD diet (14 days from starting administration), 1% (w/v) aqueous solution
smiles,measurement,setting,value
"CC[C@H]1OC(=O)[C@H](C)[C@@H](O[C@H]2C[C@@](C)(OC)[C@@H](O)[C@H](C)O2)[C@H](C)[C@@H](O[C@@H]2O[C@H](C)C[C@H](N(C)C)[C@H]2O)[C@](C)(OC)C[C@@H](C)C(=O)[C@H](C)[C@@H](O)[C@]1(C)O [clarithromycin, Clarithromycin]",Telangiectasia score (mean),"female Lewis rats; 7 days after initiation (day 0 from start of administration, baseline), 1% (w/v) aqueous solution group, instilled 3 times per day",5.3
same,Telangiectasia score (mean),"female Lewis rats; 7 days after initiation (day 0 from start of administration, baseline), 1% (w/v) aqueous solution group, instilled 6 times per day",5.3
same,Telangiectasia score (mean),"female Lewis rats; 28 days after initiation (day 21 from start of administration), 1% (w/v) aqueous solution, 5 μl/eye, instilled 3 times per day",2.8
same,Telangiectasia score (mean),"female Lewis rats; 28 days after initiation (day 21 from start of administration), 1% (w/v) aqueous solution, 5 μl/eye, instilled 6 times per day",2.5
same,Telangiectasia score in the vicinity of the meibomian gland orifices compared to the saline-administered group,"female Lewis rats; 28 days after initiation (day 21 from start of administration), 1% aqueous solution instilled three or six times per day",notably improved the telangiectasia score; also recorded: remarkably lower
same,"Number of obstructed meibomian gland orifices (mean, out of eight)","[1]; 28 days after starting feeding HR-AD diet (day 0 from start of administration, baseline), 1% (w/v) aqueous solution group",5.5
same,Meibomian gland concretion,[1]; [2],improved
same,"Number of obstructed meibomian gland orifices, change in words",[1]; [2],notably reduced the number of obstructions; also recorded: remarkably decreased
same,"Number of obstructed meibomian gland orifices (mean, out of eight)","[1]; 42 days after starting feeding HR-AD diet (day 14 from start of administration), 1% (w/v) aqueous solution, 2 μl/eye, three times per day",1.8
